Test results published in ChEMBL document CHEMBL1212812, “Multi-target spectral moment QSAR versus ANN for antiparasitic drugs against different parasite species” (Bioorg Med Chem, 2010).

What was measured:
Format in all cases: functional, organism-based
Leishmania donovani = experiment: Antimicrobial activity against Leishmania donovani
Trypanosoma cruzi = experiment: Antimicrobial activity against Trypanosoma cruzi
Plasmodium falciparum = experiment: Antimicrobial activity against Plasmodium falciparum
Leishmania infantum = experiment: Antimicrobial activity against Leishmania infantum
Trichomonas vaginalis = experiment: Antimicrobial activity against Trichomonas vaginalis

Compound | IC50 (Trypanosoma cruzi; Trypanosoma cruzi) [µM] | IC50 (Leishmania infantum) [µM] | IC50 (Trichomonas vaginalis) [µM] | other results
CCCC[C@H]1C(=O)O[C@@H]2O[C@@]3(CC)CC[C@H]4[C@H](C)CC[C@@H]1[C@@]24OO3 |  |  |  | IC50 (Leishmania donovani): 36 µM
O=C(/C=C/c1ccc2c(c1)OCO2)N1CCOCC1 | 96 |  |  | 
COc1ccc2c(c1)cc1c3ccccc3nc-1n2C | 2 |  |  | IC50 (Plasmodium falciparum): 5 µM
Nc1ccc2nc(Nc3cccc(O)c3)sc2c1 |  | 19 | 200 | 
O=[N+]([O-])c1ccc2nc(NCCO)sc2c1 |  | 104 | 200 | 
CC(=O)Nc1nc2ccc([N+](=O)[O-])cc2s1 |  | 1 | 200 | 
CCN(CC)c1nc2ccc([N+](=O)[O-])cc2s1 |  | 99 | 200 | 
C[C@@H]1CC[C@H]2CC(=O)O[C@@H]3O[C@@]4(C)CC[C@@H]1[C@@]23OO4 |  |  |  | IC50 (Leishmania donovani): 242 µM
CC[C@H]1C(=O)O[C@@H]2O[C@@]3(C)CC[C@H]4[C@H](C)CC[C@@H]1[C@@]24OO3 |  |  |  | IC50 (Leishmania donovani): 61 µM
O=[N+]([O-])c1ccc2nc(N3CCCCC3)sc2c1 |  | 6 | 189 | 
[N-]=[N+]=NC(CO)COc1ccc(Oc2ccccc2)cc1 (stereo not given) | 70 |  |  | 
CCN(CC)CCCNc1nc2ccc([N+](=O)[O-])cc2s1 |  | 4 | 49 | 
CCCNc1nc2ccc([N+](=O)[O-])cc2s1 |  | 1 | 200 | 
O=[N+]([O-])c1ccc2nc(Nc3ccccc3)sc2c1 |  | 36 | 186 | 
Nc1ccc2nc(NCCO)sc2c1 |  | 3 | 200 | 
c1ccc(Oc2ccc(OCN3CC3)cc2)cc1 | 42 |  |  | 
CN(C)c1nc2ccc(N)cc2s1 |  | 2 | 200 | 
CCN(CC)c1nc2ccc(N)cc2s1 |  | 23 | 200 | 
COc1ccc2cc3c4ccccc4nc-3n(C)c2c1 | 1 |  |  | IC50 (Plasmodium falciparum): 2 µM
C[C@@H]1CC[C@H]2[C@@H](CCCc3cc(F)cc(F)c3)C(=O)O[C@@H]3O[C@@]4(C)CC[C@@H]1[C@]32OO4 |  |  |  | IC50 (Leishmania donovani): 50 µM
O=C(/C=C/C=C/c1ccc2c(c1)OCO2)NCC1CCCCC1 | 81 |  |  | 
c1ccc(CSCCOc2ccc(Oc3ccccc3)cc2)cc1 | 60 |  |  | 
N#CSCCOc1ccc(Nc2ccccc2)cc1 | 3 |  |  | 
C[C@@H]1CC[C@H]2[C@@H](CCCc3ccc(Cl)cc3)CO[C@@H]3O[C@@]4(C)CC[C@@H]1[C@]32OO4 |  |  |  | IC50 (Leishmania donovani): 5 µM
C[C@@H]1CC[C@H]2[C@@H](CCCc3ccc(C(F)(F)F)cc3)C(O)O[C@@H]3O[C@@]4(C)CC[C@@H]1[C@]32OO4 (stereo not given in full) |  |  |  | IC50 (Leishmania donovani): 3 µM
C[C@@H]1CC[C@H]2[C@@H](CCCc3ccc(C(F)(F)F)cc3)CO[C@@H]3O[C@@]4(C)CC[C@@H]1[C@]32OO4 |  |  |  | IC50 (Leishmania donovani): 2 µM

Compound | IC50 (Trypanosoma cruzi; Trypanosoma cruzi) [µM] | IC50 (Leishmania infantum) [µM] | IC50 (Trichomonas vaginalis) [µM] | other results
C[C@@H]1CC[C@H]2[C@@H](CCCc3cccc(Cl)c3)CO[C@@H]3O[C@@]4(C)CC[C@@H]1[C@]32OO4 |  |  |  | IC50 (Leishmania donovani): 4 µM
C[C@@H]1CC[C@H]2[C@@H](CCCc3ccc(Cl)cc3)C(O)O[C@@H]3O[C@@]4(C)CC[C@@H]1[C@]32OO4 (stereo not given in full) |  |  |  | IC50 (Leishmania donovani): 5 µM
CCCN(CCC)c1c([N+](=O)[O-])cc(S(=O)(=O)Nc2cc(Cl)cc(Cl)c2)cc1[N+](=O)[O-] |  |  |  | IC50 (Leishmania donovani): 4 µM
CCC[C@@]12CC[C@H]3[C@H](C)CC[C@H]4CC(=O)O[C@H](O1)[C@]43OO2 |  |  |  | IC50 (Leishmania donovani): 41 µM
CCOC(=O)CC[C@@]12CC[C@H]3[C@H](C)CC[C@H]4CC(=O)O[C@H](O1)[C@]43OO2 |  |  |  | IC50 (Leishmania donovani): 31 µM
Nc1nc2ccc([N+](=O)[O-])cc2s1 |  | 51 | 200 | 
O=C(/C=C/C=C/C=C/c1ccc2c(c1)OCO2)N1CCCCC1 | 7 |  |  | 
O=C(/C=C/C=C/c1ccc2c(c1)OCO2)OC1CCCCC1 | 83 |  |  | 
Cc1ccc2c(c1)cc1c3ccccc3nc-1n2C | 4 |  |  | IC50 (Plasmodium falciparum): 2 µM
C[C@@H]1CC[C@H]2[C@@H](CCCc3ccc(Cl)c(Cl)c3)CO[C@@H]3O[C@@]4(C)CC[C@@H]1[C@]32OO4 |  |  |  | IC50 (Leishmania donovani): 2 µM
Cn1c2nc3ccccc3c-2cc2cc(Br)ccc21 | 32 |  |  | 
CCCN(CCC)c1c([N+](=O)[O-])cc(S(=O)(=O)N(c2ccccc2)c2ccccc2)cc1[N+](=O)[O-] |  |  |  | IC50 (Leishmania donovani): 100 µM
CCCCN(CCCC)c1c([N+](=O)[O-])cc(S(=O)(=O)Nc2ccccc2)cc1[N+](=O)[O-] |  |  |  | IC50 (Leishmania donovani): 3 µM
CCCC[C@H]1C(=O)O[C@@H]2O[C@@]3(CCCCc4ccccc4)CC[C@H]4[C@H](C)CC[C@@H]1[C@@]24OO3 |  |  |  | IC50 (Leishmania donovani): 5 µM
C[C@@H]1CC[C@H]2CC(=O)O[C@@H]3O[C@@]4(CCCc5ccc(Cl)cc5)CC[C@@H]1[C@@]23OO4 |  |  |  | IC50 (Leishmania donovani): 11 µM
CCCC[C@@]12CC[C@H]3[C@H](C)CC[C@H]4CC(=O)O[C@H](O1)[C@]43OO2 |  |  |  | IC50 (Leishmania donovani): 258 µM
O=c1ncnc2n([C@H]3O[C@@H](CO)[C@H](O)[C@@H]3O)[nH]cc1-2 [ALLOPURINOL RIBOSIDE] |  |  |  | IC50 (Leishmania donovani): 4 µM
C[C@@H]1[C@H](O)[C@@H](C)/C=C/C=C/C=C/C=C/C=C/C=C/C=C/[C@H](O[C@@H]2O[C@H](C)[C@@H](O)[C@H](N)[C@@H]2O)C[C@@H]2O[C@](O)(C[C@@H](O)C[C@@H](O)[C@H](O)CC[C@@H](O)C[C@@H](O)CC(=O)O[C@H]1C)C[C@H](O)[C@H]2C(=O)O [AMPHOTERICIN B] |  |  | 12 | 
CCO[C@H]1O[C@@H]2O[C@@]3(C)CC[C@H]4[C@H](C)CC[C@@H]([C@H]1C)[C@@]24OO3 [ARTEMOTIL] |  |  |  | IC50 (Plasmodium falciparum): 1000 µM; IC50 (Leishmania donovani): 45 µM
O=C(Cn1ccnc1[N+](=O)[O-])NCc1ccccc1 [BENZNIDAZOLE] | 3 |  |  | 
NCCC[C@](N)(C(=O)O)C(F)F [EFLORNITHINE, (S)-] |  |  |  | IC50 (Leishmania donovani): 225 µM
CC(=O)N1CCN(c2ccc(OCC3COC(Cn4ccnc4)(c4ccc(Cl)cc4Cl)O3)cc2)CC1 (stereo not given) [KETOCONAZOLE] | 3 |  |  | IC50 (Leishmania donovani): 2 µM
Cc1ncc([N+](=O)[O-])n1CCO [METRONIDAZOLE] |  |  | 3 | 
Nc1ncnc2c1ncn2[C@@H]1O[C@H](C[C@@H](N)CC[C@H](N)C(=O)O)[C@@H](O)[C@H]1O [SINEFUNGIN] |  |  |  | IC50 (Leishmania donovani): 1 µM
C[S+]([O-])CCCCN=C=S (stereo not given) [SULFORAPHANE] | 120 |  |  | IC50 (Trypanosoma cruzi): 102 µM

Now from value to molecule, other results behind:

IC50 (Trypanosoma cruzi; Trypanosoma cruzi) [µM] | IC50 (Leishmania infantum) [µM] | IC50 (Trichomonas vaginalis) [µM] | Compound | other results
32 |  |  | Cn1c2nc3ccc(C#N)cc3c-2cc2cc(F)ccc21 | 
10 |  |  | N#CSCCOc1ccc2[nH]c3ccccc3c2c1 | 
 | 48 | 2 | O=[N+]([O-])c1ccc2nc(Cl)sc2c1 | 
 | 25 | 166 | CN(C)c1ccc(Nc2nc3ccc([N+](=O)[O-])cc3s2)cc1 | 
 | 18 | 83 | COc1cc(NS(C)(=O)=O)ccc1Nc1nc2ccc([N+](=O)[O-])cc2s1 | 
 | 15 | 174 | O=[N+]([O-])c1ccc2nc(Nc3cccc(O)c3)sc2c1 | 
 | 4 | 200 | CN(C)c1nc2ccc([N+](=O)[O-])cc2s1 | 
70 |  |  | O=C=NCCOc1ccc(Oc2ccccc2)cc1 | 
70 |  |  | [N-]=[N+]=NCCOc1ccc(Oc2ccccc2)cc1 | 
 | 54 | 200 | Nc1ccc2nc(Cl)sc2c1 | 
 | 73 | 133 | CN(C)c1ccc(Nc2nc3ccc(N)cc3s2)cc1 | 
 | 10 | 156 | COc1cc(NS(C)(=O)=O)ccc1Nc1nc2ccc(N)cc2s1 | 
 | 121 | 200 | CC(=O)Nc1nc2ccc(N)cc2s1 | 
 | 10 | 214 | Nc1ccc2nc(N3CCCCC3)sc2c1 | 
 | 65 | 200 | CCN(CC)CCCNc1nc2ccc(N)cc2s1 | 
 | 98 | 200 | CCCNc1nc2ccc(N)cc2s1 | 
 | 63 | 208 | Nc1ccc2nc(Nc3ccccc3)sc2c1 | 
1 |  |  | C[C@]12CC[C@H](O)C[C@@H]1CC[C@@H]1[C@@H]2CC[C@@]2(C)[C@H]1CC[C@@H]2[C@@](C)(O)C1CCCCN1 (stereo not given in full) | 
100 |  |  | CSCCOc1ccc(Oc2ccccc2)cc1 | 
8 |  |  | N#CSCCOc1ccc([S+]([O-])c2ccccc2)cc1 (stereo not given) | 
 | 151 | 200 | Nc1ccc2nc(N)sc2c1 | 
66 |  |  | COc1ccc(CCNC(=O)/C=C/C=C/c2ccc3c(c2)OCO3)cc1OC | 
10 |  |  | C(/C=C/c1ccc2c(c1)OCO2)=C\CN1CCCCC1 | 
97 |  |  | O=C(/C=C/c1ccc2c(c1)OCO2)N1CCCCC1 [ILEPCIMIDE] | 
115 |  |  | O=C(O)/C=C/C=C/c1ccc2c(c1)OCO2 [PIPERIC ACID] | 
5 |  |  | O=C(/C=C/C=C/c1ccc2c(c1)OCO2)N1CCCCC1 [PIPERINE] | 
19 |  |  | O=C(CCCCc1ccc2c(c1)OCO2)N1CCCCC1 [TETRAHYDROPIPERINE] | 
